Test results published in US20170232083A1, “METHODS OF DIAGNOSIS AND TREATMENT OF CELIAC DISEASE IN CHILDREN” (priority 2014, published 2017).

System: PBMC (polyclonal gluten-specific T cells) of paediatric and adult CD patients
Assay: IFN-γ ELISpot of PBMC after 3 day oral wheat challenge (SFU, % of maximal peptide response, dominance scores, EC50; Examples 5-6)
Type: cell-based, human
Details: for Cross-reactive T cell response: following wheat challenge
[1] = subject I (3-5yrs/6-10yrs part)
[2] = subject J (3-5yrs/6-10yrs part)
[3] = subject K (3-5yrs/6-10yrs part)
[4] = subject V (3-5yrs/6-10yrs part)
[5] = subject W (3-5yrs/6-10yrs part)
[6] = subject Y (3-5yrs/6-10yrs part)
[7] = subject five (3-5yrs/6-10yrs part)
[8] = subject seven (3-5yrs/6-10yrs part)
[9] = subject six (3-5yrs/6-10yrs part)
[10] = subject ten (3-5yrs/6-10yrs part)
[11] = subject two (3-5yrs/6-10yrs part)

Substance	Cross-reactive T cell response (subject A, 11-17yrs)	Cross-reactive T cell response (subject D, 11-17yrs)	Cross-reactive T cell response (subject E, 11-17yrs)	Significant response as a percentage of maximal peptide SFU (subject F, 11-17yrs)	Cross-reactive T cell response (subject F, 11-17yrs)	Cross-reactive T cell response (subject G, 11-17yrs)	Cross-reactive T cell response (subject H)	Cross-reactive T cell response [1]	Significant response as a percentage of maximal peptide SFU (subject J)	Cross-reactive T cell response [2]	Cross-reactive T cell response [3]	Cross-reactive T cell response (subject P, 11-17yrs)	Significant response as a percentage of maximal peptide SFU (subject Q, 11-17yrs)	Cross-reactive T cell response (subject Q, 11-17yrs)	Significant response as a percentage of maximal peptide SFU (subject T, 11-17yrs)	Cross-reactive T cell response (subject T, 11-17yrs)	Cross-reactive T cell response (subject U, 11-17yrs)	Cross-reactive T cell response [4]	Cross-reactive T cell response [5]	Cross-reactive T cell response [6]	other results
NPLQPEQPFPLQPQPP	3 SFU	12 SFU	21 SFU	′ (11-20% = ′)	25 SFU	1 SFU	14 SFU	1 SFU	′ (11-20% = ′)	38 SFU	19 SFU	6 SFU	′′ (21-40% = ′′)	23 SFU	′′ (21-40% = ′′)	33 SFU	9 SFU	6 SFU	7 SFU	3 SFU	Significant response as a percentage of maximal peptide SFU (subject D, 11-17yrs): ′′ (21-40% = ′′); Significant response as a percentage of maximal peptide SFU (subject E, 11-17yrs): (6-10% - ^); Significant response as a percentage of maximal peptide SFU (subject H, 11-17yrs): + (>70% = +); Significant response as a percentage of maximal peptide SFU (subject K): ′′ (21-40% = ′′); Significant response as a percentage of maximal peptide SFU (subject five): ′′ (21-40% = ′′); Cross-reactive T cell response [7]: 14 SFU; Cross-reactive T cell response (subject nine, 11-17yrs): 1 SFU; Cross-reactive T cell response [8]: 4 SFU; Significant response as a percentage of maximal peptide SFU (subject six): + (>70% = +); Cross-reactive T cell response [9]: 13 SFU; Significant response as a percentage of maximal peptide SFU (subject ten): + (>70% = +); Cross-reactive T cell response [10]: 11 SFU; Significant response as a percentage of maximal peptide SFU (subject two): ′ (11-20% = ′); Cross-reactive T cell response [11]: 10 SFU
QPEQPFPLQPEQPVP	1 SFU	0 SFU	9 SFU	′ (11-20% = ′)	27 SFU	2 SFU	3 SFU	1 SFU	(6-10% - ^)	11 SFU	8 SFU	12 SFU	′′ (21-40% = ′′)	20 SFU	′ (11-20% = ′)	16 SFU	9 SFU	4 SFU	4 SFU	1 SFU	Cross-reactive T cell response [7]: 3 SFU; Cross-reactive T cell response (subject nine, 11-17yrs): 0 SFU; Significant response as a percentage of maximal peptide SFU (subject seven): + (>70% = +); Cross-reactive T cell response [8]: 19 SFU; Cross-reactive T cell response [9]: 2 SFU; Cross-reactive T cell response [10]: 8 SFU; Cross-reactive T cell response [11]: 6 SFU
W09 (PQPFLPELPYPQP) [Peptide W09]	–	–	–	–	–	–	–	–	–	–	–	–	–	–	–	–	–	–	–	–	Dominance score 3-5yrs (n = 9) (CD children 3-5yrs, n = 9, following wheat challenge, mean percentage of maximal peptide response): 30.7; Dominance score 6-10yrs (n = 10) (CD children 6-10yrs, n = 10, following wheat challenge, mean percentage of maximal peptide response): 28.6; Dominance score 11-18yrs (n = 11) (CD children 11-18yrs, n = 11, following wheat challenge, mean percentage of maximal peptide response): 19.1; Dominance score Mean all ages (CD children, all ages, following wheat challenge (Table 9)): 25.2
